The values that follow come from publication PMC6076261, “A new quinoline-based chemical probe inhibits the autophagy-related cysteine protease ATG4B” (Scientific Reports, 2018).

The target of series [1] is T1, ATG4B (Homo sapiens, UniProt Q9Y4P1).
T1 sequence (Q9Y4P1 1-393): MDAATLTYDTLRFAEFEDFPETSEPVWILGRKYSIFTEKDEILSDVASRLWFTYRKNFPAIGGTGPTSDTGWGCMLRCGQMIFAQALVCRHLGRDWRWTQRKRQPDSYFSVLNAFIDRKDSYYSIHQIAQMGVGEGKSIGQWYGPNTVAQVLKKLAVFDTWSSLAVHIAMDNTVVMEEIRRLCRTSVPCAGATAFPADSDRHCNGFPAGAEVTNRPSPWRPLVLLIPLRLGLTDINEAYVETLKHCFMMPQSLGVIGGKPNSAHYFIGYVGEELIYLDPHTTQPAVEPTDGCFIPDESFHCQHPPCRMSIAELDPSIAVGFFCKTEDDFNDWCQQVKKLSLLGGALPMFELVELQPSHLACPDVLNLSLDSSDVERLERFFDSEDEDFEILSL
Description: FRET-LC3 ATG4B enzymatic assay. The settings on record: read-out: inhibition in the screening FRET assay. The series is classed as biochemical.

Series [2] deals with T1, ATG4B. Description: Fluorimetric ATG4B enzymatic assay with fluorescent peptide substrate pim-FG-PABA-AMC. The series is classed as biochemical. The settings on record: for IC50: pim-FG-PABA-AMC substrate, read-out: IC50, fluorimetric assay with fluorogenic peptide substrate. Here is the method:
100 μL of immobilized TCEP in deionized water was diluted in 2.50 mL of buffer (50 mM Tris, 35 mM NaCl, pH = 8). The sample was centrifuged at 10,000 × g during 1 min. The supernatant was removed. This operation was done two more times. […] The solution was incubated on a carousel at 4 °C for 1 h. This solution was then diluted with 2.06 mL of buffer (50 mM Tris, 35 mM NaCl, 5 mM EDTA, pH 8), centrifuged at 10,000 × g during 1 min and the supernatant, containing the activated ATG4B (1 µM), was kept. A 96-well all-black plate was loaded where each well was charged with 55 µL of inhibitor at different concentrations (0 µM to 100 µM or 200 µM) in buffer/DMSO 41:3 (v/v) and 20 μL of enzyme or buffer were dispensed using a dispenser (Biotek). Plate was incubated for 30 min. A single read was done using excitation and emission wavelengths of 350/450 nm. 25 µL of peptide substrate (pim-FG-PABA-AMC)[52] (final assay concentration 100 µM) was dispensed using a dispenser (Biotek). Experiments were performed in triplicate except when it is mentioned. Fluorescent reads were performed using the Synergy 4 (Biotek) at 25 °C using excitation and emission wavelengths of 350/450 nm every 15 min for 2 h.

A further series concerns SKBR3-hrGFP-LC3B cells. The series can be described thus: High content screening of GFP-LC3B puncta. The class given is cell-based. The settings on record: 100 nM, 1 µM, 10 µM; 6 h and 24 h. From the text:
One hundred of the predicted best binding ATG4B inhibitors were obtained to test for effects on GFP-LC3B puncta levels in SKBR3-hrGFP-LC3B breast cancer cells cultured in standard fed conditions. Based on our observations using ATG4B-siRNAs (Figs 2a,b and S1) and several reports in the literature[22]–[24], we expected that reduced ATG4B function would primarily affect LC3B-II recycling and lead to an increase in GFP-LC3B puncta, whereas complete loss of ATG4B would also affect pro-LC3B processing and lead to a decrease in GFP-LC3B puncta formation. Compounds were initially tested at three concentrations (100 nM, 1 µM and 10 µM) and two treatment periods (6 hour and 24 hour). In parallel, all compounds were tested at a single concentration (8 µM) in a FRET-LC3 ATG4B enzymatic assay developed in our group. […] Calculations predicted that compound 1–4 bound to closed binding site#1 (Fig. S2) while 2–22 and 3–22 bound to open site#2 (Fig. S3) and 4–6 and 4–28 bound to closed site#2 (Figs S4 and S5). Of these, compounds 1–4 and 4–6 are biphenols which are potentially metabolically unstable by oxidation, sulfation and glucuronidation pathways. Compound 2–22 and 3–22 have electrophilic sites, which are drawbacks for drug development as they are prone to metabolic transformation and could lead to covalent bond formation with biological nucleophiles. […] It was nonetheless selected for further follow-up based on its favorable structural characteristics and resemblance to the known drugs and lysosomal-related autophagy inhibitors, chloroquine and hydroxychloroquine, and to the styrylquinoline, MK-571, a selective antagonist of leukotriene D4 known to have an excellent pharmacokinetic profile in terms of oral bioavailability and long duration of action.
High-throughput fluorescence microscopy was performed at room-temperature on the InCell Analyzer 1000 (GE Healthcare) using the 20X objective to view Hoescht 33342 nuclear stain, ethidium homodimer (EthD1) viability stain and GFP-LC3 puncta in SKBR3-hrGFP-LC3B cells. Thirty min prior to imaging, cells were incubated at 37 °C with 4 µM Hoechst 33342 (Invitrogen) and 0.5 µM EthD1 (Invitrogen). Image analysis was performed using InCell Developer Toolbox (Ver. 1.6, GE Healthcare). Individual cells were identified with segmentation of nuclei based on Hoechst 33342 staining. Cell borders were determined by defining a radius around the nucleus. Cells were classified as “dead” if the defined cell overlapped by at least 50% with the EthD1 signal. The number of GFP-LC3 puncta within each live cell was then counted, as well as the number of live cells with at least 5 puncta. Puncta were defined as GFP positive structures of at least 1 pixel with a form factor (estimate of circularity) of at least 0.4.

Another series relates to MCF7 cells. Description: LC3B-based autophagy flux assay (western blot) in MCF7 cells. The series is classed as cell-based. The settings on record: with and without bafilomycin A1. From the text: While the effects observed were modest, this observation is consistent with reduced LC3B-II recycling and reduced autophagic flux.
A short description of series [3]: Stability of 4-28 under irradiation, HPLC analysis. The class given is physicochemical. An excerpt: 4–28 is a 4-aminostyrylquinoline, a structural class known to be photo-reactive[51]. In preliminary assays under standard conditions with the reducing agent TCEP present, we noted the formation of isomers and adducts between 4–28 and TCEP (Fig. 3b). Thus, to confirm the ability of 4–28 to inhibit ATG4B activity, we used a mass spectrometry assay using a GFP-LC3-YFP substrate[36] and by using activation of the enzyme with TCEP on solid support, which can be easily removed after the activation and prior to incubation with the inhibitor. […] (Fig. 3d). […] By these two assays, we confirmed the ability of 4–28 to inhibit ATG4B catalytic activity.
In our case, with incubation of 4–28 for 1 h under UV-irradiation, the formation of the cis compound was observed by HPLC and ^1H NMR along with other compounds consistent with further electrocyclization (Figs 3b and S6 and S7). Given these observed instabilities and reactivity, a structure-activity relationship study was initiated with an aim to identify an analog with improved stability and enhanced potency against ATG4B and with a pharmacokinetic profile suitable to support in vivo testing.

Series [4] concerns the target T1, ATG4B. The series can be described thus: Mass spectrometry ATG4B enzymatic assay with GFP-LC3-YFP substrate.
Description: The sample was centrifuged at 10000 × g during 1 min. The supernatant was removed. This operation was done two more times. […] 15 µL of this ATG4B solution were mixed with the 20 µL rinsed immobilized TCEP solution. The solution was incubated on a carousel at 4 °C for 1 h. […] Kinetic determination was performed in triplicate in 1 dram HPLC vials using 350 µL glass inserts. […] The analysis of the m/z distribution signal resulting from the protein substrate was performed by Agilent MassHunter Workstation software elucidating proteins 20000–80000 Da between 700 m/z and 1800 m/z. […] The amount of cleavage was determined by calculating the value of the formula A/(A + B) where A was the peak height of the 27885 Da residue and B was the peak height of the 72904 Da residue. Each experiment was assessed with a concomitant parallel negative control.

The term inhibition denotes the change of the read-out against control, counted positive when it falls. In general, IC50 refers to the concentration needed to halve the response being measured. In the case of `CCCCN(CCC(=O)O)c1ccc(/C=C/c2ccnc3ccccc23)cc1` [4–28], the inhibition at 8 µM at ATG4B [1] stood at 43%. The IC50 at ATG4B [2] came to 79 ± 9 µM; at ATG4B [4], 116 ± 14 µM. In addition, the “effect on GFP-LC3 puncta in primary screen” value (“effect on GFP-LC3 puncta” for short) in the series with SKBR3-hrGFP-LC3B cells was “decrease in GFP-LC3 puncta”. In the series with MCF7 cells, the “endogenous LC3B-II” value is listed as “accumulation of LC3B-II that was not additive to bafilomycin A1”. In addition, the “cis-isomer formed under assay conditions” value in series [3] (1 irradiation at 350 nm each 15 min for 2 h) is recorded as 4%. In series [3] (1 h UV irradiation, HPLC and 1H NMR), the “stability under UV irradiation” value is on record as “instability under UV irradiation”.

As to `C=CCSC(SCC=C)c1ccc(/C=C/c2ccnc3cc(Cl)ccc23)cc1` [Compound 69], the IC50 on ATG4B [2] is more than 100 µM. The same measure, in the same setting: to `CCOC(=O)CCSC(SCCC(=O)OCC)c1ccc(/C=C/c2ccnc3cc(Cl)ccc23)cc1` [Compound 68] belongs more than 100 µM. Regarding `O=C(Nc1ccc([N+](=O)[O-])cc1)C(=O)C(C(=O)c1ccccc1F)C1OC(=O)c2ccccc21` (stereo not shown) [3–22], the “effect on GFP-LC3 puncta” value in the series on SKBR3-hrGFP-LC3B cells was “increase in GFP-LC3 puncta”. `Cc1cc(Cc2cc(C)c(O)c(CO)c2)cc(CO)c1O` [1–4]: in the series with SKBR3-hrGFP-LC3B cells, the “effect on GFP-LC3 puncta” value was “increase in GFP-LC3 puncta”. On to `COc1cccc(NC(=O)C(=O)C(C(=O)c2ccccc2F)C2OC(=O)c3ccccc32)c1` (stereo not shown) [2–22], for which the “effect on GFP-LC3 puncta” value in the series on SKBR3-hrGFP-LC3B cells is given as “increase in GFP-LC3 puncta”. On to `CCN(CCO)CCCC(C)Nc1ccnc2cc(Cl)ccc12` (stereo not shown) [hydroxychloroquine, reference compound], for which the “inhibition of activity of purified ATG4B” value at ATG4B [2] (up to 200 µM) is reported as “did not show significant inhibition”.
